# Experiments:
# Assay in all cases: Liquid medium dilution method (MIC)
# Format in all cases: cell-based
# [1] = tested on: Staphylococcus aureus 011UC4; conditions: 24 h incubation at 37°C, read-out: concentrations minimales inhibitrices (C.M.I.)
# Procedure: (§1) Méthode des dilutions en milieu liquide
# (§2) On prépare une série de tubes dans lesquels on répartit une même quantité de milieu nutritif stérile. On distribue dans chaque tube des quantités croissantes du produit à étudier, puis chaque tube est ensemencé avec une souche bactérienne. Après incubation de vingt-quatre heures à l'étuve à 37°C, l'inhibition de la croissance est appréciée par transillumination, ce qui permet de déterminer les concentrations minimales inhibitrices (C.M.I.) exprimées en microgrammes/cm^3.
# [2] = tested on: Streptococcus agalactiae groupe B 02B1HT1; conditions: 24 h incubation at 37°C, read-out: concentrations minimales inhibitrices (C.M.I.)
# Procedure: as §1, §2
# [3] = tested on: Streptococcus agalactiae groupe B 02B1SJ1; conditions: 24 h incubation at 37°C, read-out: concentrations minimales inhibitrices (C.M.I.)
# Procedure: as §1, §2
# [4] = tested on: Streptococcus faecalis groupe D 02D2UC1; conditions: Enterococcus faecalis, 24 h incubation at 37°C, read-out: concentrations minimales inhibitrices (C.M.I.)
# Procedure: as §1, §2
# [5] = tested on: Streptococcus faecium groupe D 02D3HT1; conditions: Enterococcus faecium, 24 h incubation at 37°C, read-out: concentrations minimales inhibitrices (C.M.I.)
# Procedure: as §1, §2
# [6] = tested on: Streptococcus mitis 02mitCB1; conditions: 24 h incubation at 37°C, read-out: concentrations minimales inhibitrices (C.M.I.)
# Procedure: as §1, §2
# [7] = tested on: Streptococcus pneumoniae 030GR20; conditions: 24 h incubation at 37°C, read-out: concentrations minimales inhibitrices (C.M.I.)
# Procedure: as §1, §2
# [8] = tested on: Streptococcus pneumoniae 030PW23c; conditions: 24 h incubation at 37°C, read-out: concentrations minimales inhibitrices (C.M.I.)
# Procedure: as §1, §2
# [9] = tested on: Streptococcus pneumoniae 030RO1i; conditions: 24 h incubation at 37°C, read-out: concentrations minimales inhibitrices (C.M.I.)
# Procedure: as §1, §2
# [10] = tested on: Streptococcus pneumoniae 030SJ1c; conditions: 24 h incubation at 37°C, read-out: concentrations minimales inhibitrices (C.M.I.)
# Procedure: as §1, §2
# [11] = tested on: Streptococcus pneumoniae 032UC1; conditions: 24 h incubation at 37°C, read-out: concentrations minimales inhibitrices (C.M.I.)
# Procedure: as §1, §2
# [12] = tested on: Streptococcus pyogenes groupe A 02A1UC1; conditions: 24 h incubation at 37°C, read-out: concentrations minimales inhibitrices (C.M.I.)
# Procedure: as §1, §2
# Streptococcus sanguis = conditions: 24 h incubation at 37°C, read-out: concentrations minimales inhibitrices (C.M.I.)
# Procedure: as §1, §2
smiles,measurement,setting,value
CC[C@H]1OC(=O)[C@H](C)C(=O)[C@H](C)[C@@H](O[C@@H]2O[C@H](C)C[C@H](N(C)C)[C@H]2O)[C@](C)(OC)C[C@@H](C)/C(=N\OC2CCCNC2)[C@H](C)[C@H]2N(NCCCc3ccnc4ccccc34)C(=O)O[C@]12C (stereo partly shown) [Exemple 3],MIC,[1],0.3 mg/L
same,MIC,[2],0.08 mg/L
same,MIC,[3],0.08 mg/L
same,MIC,[4],0.08 mg/L
same,MIC,[5],0.08 mg/L
same,MIC,[6],0.04 mg/L
same,MIC,[7],0.04 mg/L
same,MIC,[8],0.08 mg/L
same,MIC,[9],0.08 mg/L
same,MIC,[10],0.15 mg/L
same,MIC,[11],≤ 0.02 mg/L
same,MIC,[12],0.08 mg/L
same,MIC,Streptococcus sanguis,0.08 mg/L
